We go through 29 compounds from patent US20220235057A1, “CYCLIC FORMYL AND CYCLIC KETONE COMPOUNDS, PREPARATION METHOD THEREFOR, AND PHARMACEUTICAL USE” (priority 2019, published 2022).

The test relates to drug resistant strains of Acinetobacter baumannii. The test can be described thus: anti-drug resistant strains of Acinetobacter baumannii (inhibition zone). Note: test concentration or dose not given here. The test is classed as cell-based.
[1] abbreviates: resistant strain of Acinetobacter baumannii no. 16.
The mark [2] stands for this setting: resistant strain of Acinetobacter baumannii no. 17.
The mark [3] stands for this setting: resistant strain of Acinetobacter baumannii no. 18.
The mark [4] stands for this setting: resistant strain of Acinetobacter baumannii no. 19.
[5] abbreviates: resistant strain of Acinetobacter baumannii no. 20.

In the case of `COc1ccc(CC2N(Nc3ccccc3)C(=O)C3CCCCN32)cc1O` (single isomer, unassigned) [ZKD-12A], the “inhibition zone, diameter” value runs as follows: under setting [1], 65 mm; under setting [2], 68 mm; under setting [3], 68 mm; under setting [4], 58 mm; under setting [5], 68 mm.
Regarding `O=C1C2CCCCN2C(c2ccc(O)cc2)N1Nc1ccccc1` (single isomer, unassigned) [ZKD-4A], the “inhibition zone, diameter” value by setting is: under setting [1], 58 mm; under setting [2], 40 mm; under setting [3], 66 mm; under setting [4], 68 mm; under setting [5], 62 mm.
Taken in the same sequence, the figures for `Cn1cncc1C(=O)NNc1ccc(F)cc1` [ZBM-30] were 45 mm, 68 mm, 45 mm, 68 mm and 68 mm.
Taken in the same sequence, the figures for `O=C(NNc1ccc(F)cc1)c1ncc[nH]1` [ZBM-28] were 51 mm, 68 mm, 64 mm, 64 mm and 68 mm.
Taken in the same sequence, the figures for `O=C1C2CCCCN2C(c2ccc(B(O)O)cc2)N1Nc1ccccc1` (stereo not shown) [ZKD-10A] were 56 mm, 53 mm, 55 mm, 48 mm and 68 mm.
Regarding `O=C(NNc1ccc(F)cc1)[C@@H]1Cc2ccccc2CN1` [ZSD-54], the “inhibition zone, diameter” value came out at 50 mm under setting [1]; 58 mm under setting [2]; 47 mm under setting [3]; 68 mm under setting [4]; 68 mm under setting [5].
Turning to `COc1ccc(CC2N(Nc3ccccc3)C(=O)C3CCCCN32)cc1OC` (single isomer, unassigned) [ZKD-13A], the “inhibition zone, diameter” value was found to be 68 mm under setting [1]; 68 mm under setting [2]; 68 mm under setting [3]; 64 mm under setting [4]; 68 mm under setting [5].
Turning to `COc1ccc(C2N(Nc3ccccc3)C(=O)C3CCCCN32)cc1OC` (stereo not shown) [ZKD-6A], the “inhibition zone, diameter” value turned out to be 45 mm under setting [1]; 43 mm under setting [2]; 20 mm under setting [3]; 25 mm under setting [4]; 64 mm under setting [5].
Taken in the same sequence, the figures for `O=C(NNc1ccc(F)cc1)c1ccc2cc[nH]c2c1` [ZBM-24] were 38 mm, 68 mm, 6 mm, 50 mm and 68 mm.
Taken in the same sequence, the figures for `COc1cc(C2N(Nc3ccccc3)C(=O)C3CCCCN32)ccc1O` (stereo not shown) [ZKD-18B] were 68 mm, 68 mm, 68 mm, 68 mm and 68 mm.
Taken in the same sequence, the figures for `COc1ccc(C2N(Nc3ccccc3)C(=O)C3CCCCN32)cc1O` (stereo not shown) [ZKD-19B] were 68 mm, 68 mm, 68 mm, 68 mm and 68 mm.
Regarding `Cc1cnc2c(S(=O)(=O)N3CCCCC3C(=O)NNc3ccc(F)cc3)cccc2c1` (stereo not shown) [ZKD-21], the “inhibition zone, diameter” value runs as follows: under setting [1], 60 mm; under setting [2], 48 mm; under setting [3], 53 mm; under setting [4], 64 mm; under setting [5], 68 mm.
Taken in the same sequence, the figures for `O=C1C2CCCCN2[C@@H](c2ccc(B(O)O)cc2)N1Nc1ccccc1` (stereo partly shown) [ZKD-10B] were 39 mm, 48 mm, 45 mm, 46 mm and 54 mm.
In the same order, the values of `Cn1cnc(C(=O)NNc2ccc(F)cc2)c1` [ZBM-29] are 51 mm, 68 mm, 48 mm, 68 mm and 68 mm.
In the same order, the values of `CC1(C)OB(c2ccc([C@@H]3N(Nc4ccccc4)C(=O)C4CCCCN43)cc2)OC1(C)C` (stereo partly shown) [ZKD-15A] are 46 mm, 50 mm, 40 mm, 68 mm and 68 mm.
On to `O=C(NNc1ccc([N+](=O)[O-])cc1)[C@@H]1Cc2ccccc2CN1` [ZSD-15], for which the “inhibition zone, diameter” value is, setting by setting: under setting [1], 44 mm; under setting [2], 40 mm; under setting [3], 68 mm; under setting [4], 68 mm; under setting [5], 40 mm.
Take `COc1ccc([C@H]2N(Nc3ccccc3)C(=O)C3CCCCN32)cc1OC` (stereo partly shown) [ZKD-6B]: the “inhibition zone, diameter” value reads like this: under setting [1], 16 mm; under setting [2], 17 mm; under setting [3], 16 mm; under setting [4], 20 mm; under setting [5], 40 mm.
For `O=C(NNc1ccc(F)cc1)c1cc2ccc(Cl)cc2[nH]1` [ZBM-36], the “inhibition zone, diameter” value is recorded as 30 mm under setting [1]; 58 mm under setting [2]; 21 mm under setting [3]; 68 mm under setting [4]; 68 mm under setting [5].
For `O=C1C2CCCCN2C(c2ccc(O)cc2)N1Nc1ccccc1` (single isomer, unassigned) [ZKD-4B], the “inhibition zone, diameter” value came to 68 mm under setting [1]; 68 mm under setting [2]; 68 mm under setting [3]; 68 mm under setting [4]; 68 mm under setting [5].
Turning to `COc1ccc(CC2N(Nc3ccccc3)C(=O)C3CCCCN32)cc1OC` (single isomer, unassigned) [ZKD-13B], the “inhibition zone, diameter” value is, setting by setting: under setting [1], 68 mm; under setting [2], 68 mm; under setting [3], 36 mm; under setting [4], 64 mm; under setting [5], 68 mm.
Consider `CC1(C)OB(c2ccc([C@H]3N(Nc4ccccc4)C(=O)C4CCCCN43)cc2)OC1(C)C` (stereo partly shown) [ZKD-15B], for which the “inhibition zone, diameter” value by setting is: under setting [1], 67 mm; under setting [2], 68 mm; under setting [3], 40 mm; under setting [4], 68 mm; under setting [5], 68 mm.
As for `O=C(NNc1ccc(F)cc1)C1CCc2ccccc2N1` (stereo not shown) [ZXD-F], the “inhibition zone, diameter” value by setting is: under setting [1], 65 mm; under setting [2], 68 mm; under setting [3], 68 mm; under setting [4], 68 mm; under setting [5], 68 mm.
As for `COc1ccc(CC2N(Nc3ccccc3)C(=O)C3CCCCN32)cc1O` (single isomer, unassigned) [ZKD-12B], the “inhibition zone, diameter” value under setting [1] is 68 mm; the “inhibition zone, diameter” value under setting [2] was 68 mm; the “inhibition zone, diameter” value under setting [3] came out at 55 mm; the “inhibition zone, diameter” value under setting [4] was determined as 60 mm; the “inhibition zone, diameter” value under setting [5] was 68 mm.
`O=C1C2CCCCN2[C@H](c2ccco2)N1Nc1ccccc1` (stereo partly shown) [ZKD-5A]: the “inhibition zone, diameter” value is, setting by setting: under setting [1], 68 mm; under setting [2], 68 mm; under setting [3], 68 mm; under setting [4], 68 mm; under setting [5], 68 mm.
Take `O=C1C2CCCCN2[C@@H](c2ccco2)N1Nc1ccccc1` (stereo partly shown) [ZKD-5B]: the “inhibition zone, diameter” value amounted to 68 mm under setting [1]; 48 mm under setting [2]; 48 mm under setting [3]; 55 mm under setting [4]; 68 mm under setting [5].
In the case of `O=C(NNc1ccc(F)cc1)C1CCCCN1` (stereo not shown) [ZKD-17], the “inhibition zone, diameter” value runs as follows: under setting [1], 67 mm; under setting [2], 68 mm; under setting [3], 36 mm; under setting [4], 68 mm; under setting [5], 68 mm.
Take `COc1cc(CC2N(Nc3ccccc3)C(=O)C3CCCCN32)ccc1O` (single isomer, unassigned) [ZKD-14A]: the “inhibition zone, diameter” value is on record as 68 mm under setting [1]; 68 mm under setting [2]; 45 mm under setting [3]; 64 mm under setting [4]; 68 mm under setting [5].
On to `COc1cc(CC2N(Nc3ccccc3)C(=O)C3CCCCN32)ccc1O` (single isomer, unassigned) [ZKD-14B], for which the “inhibition zone, diameter” value is, setting by setting: under setting [1], 54 mm; under setting [2], 53 mm; under setting [3], 34 mm; under setting [4], 68 mm; under setting [5], 68 mm.
Consider `COc1ccc([C@@H]2N(Nc3ccccc3)C(=O)C3CCCCN32)cc1O` (stereo partly shown) [ZKD-19A], for which the “inhibition zone, diameter” value is, setting by setting: under setting [1], 68 mm; under setting [2], 68 mm; under setting [3], 68 mm; under setting [4], 68 mm; under setting [5], 68 mm.
